Laboratory results taken from patent US20250249001A1, “METHODS OF TREATING SUBSTANCE USE DISORDER WITH 4-(3-CYANOPHENYL)-6-PYRIDINYLPYRIMIDINE MGLU5 NEGATIVE ALLOSTERIC MODULATORS” (Tempero Bio, Inc., priority 2022, published 2025).
Read-outs that look alike come from different tables or passages of the source.

Key:
[1] = tested on: cocaine self-administration in rats
[2] = tested on: oxycodone reinstatement in rats; experiment: Yohimbine-induced reinstatement of oxycodone self-administration; format: in vivo, Sprague-Dawley rats; conditions: 3 mg/kg thirty minutes before yohimbine 2 mg/kg; Ps<0.001
Procedure: Evaluation of Compound 1 on Oxycodone Reinstatement. After completion of testing rats were re-trained with oxycodone for one week to ensure stable baseline. Rats then underwent a 6-day extinction where only saline infusion occurred when active lever was pressed. Meanwhile, the rats were divided into 3 groups: All rats received one injection of alpha-2 adrenergic antagonist yohimbine (2 mg/kg) with 0 min pretreatment (rats were placed into the training box immediately). Thirty minutes before yohimbine treatment, one group of rats received saline, another group received MTEP 3 mg/kg injection, and the 3rd group received Compound 1 (3 mg/kg). Yohimbine-induced reinstatement was re-tested two more times in the same rats 3 days and 6 days after the first test, under continuous extinction procedure.
Statistical Analysis. Prism 9.40 software package Version 9 was used for statistical analysis and graphing. The number of active lever responses were recorded during each session and compared between treatment groups. A one-way mixed-effects model (REML) of ANOVA followed by Dunnett's post hoc tests were used to analyze efficacy of Compound 1 and MTEP on oxycodone self-administration in stages I (The repeated measure ANOVA was not totally applicable due to a few outlier data points, which are removed), and one-way mixed-effects model (REML) of ANOVA followed by Tukey's post hoc tests were used in Stage II. An effect was considered significant if P<0.05. Data were represented as the mean and standard error to the mean (s.e.m). Statistical outliers which exceeded mean +/− (2× standard deviation) of the group were removed from the analysis.

[3] = tested on: cocaine-induced CPP in male SD rats; format: in vivo, Sprague Dawley rats; conditions: for time difference (drug-paired vs saline-paired) vs Cocaine-Saline group / time spent in the drug-paired compartment vs Cocaine-Saline group: day 10
Procedure: Animals: Male Sprague Dawley rats (Envigo, IN, 275-299 g) were group housed upon arrival (2 per cage). All rats were examined and handled to assure adequate health and suitability. During the study, a 12/12 light/dark cycle was maintained (lights switched on at 7:00 am). The room temperature was maintained between […] and 23° C. with a relative humidity maintained around 50%. Chow (LabDiet #5001) and water were provided ad libitum for the duration of the study. The test was performed during the animal's light cycle phase.
Cocaine (10 mg/kg) was dissolved in saline and injected IP at a dose volume of 1 ml/kg. Cocaine was administered on training days 3, 5, 7 and 9 immediately prior to training.
3-((2-Methyl-4-thiazolyl)ethynyl)pyridine (MTEP, 3 mg/kg), was dissolved in saline and injected IP on day 10 (bias test) at a dose volume of 1 ml/kg 30 minutes prior to testing.
Compound 1 (1, 3 and 10 mg/kg) was formulated in 10% Solutol HS15 and 90% (10% aqueous 2-hydroxypropyl-β-cyclodextrin) and injected IP on day 10 (bias test) at a dose volume of 2 ml/kg. Compound 1 was administered 30 minutes prior to testing.
The chamber used in this study contained two compartments [(60 cm (L)×40 cm (W)×24 cm (H)]. The compartment used for each animal and drug pairing was assigned and counterbalanced in advance and adjusted as necessary in the rebalancing procedure after day 1 (see details below). Within the chamber, visual and physical features were used to create the two distinct compartments. For example, one compartment may have a flat plastic floor with white stripes and the other may have a textured floor and black stripes. The chambers were cleaned with 70% alcohol in between runs.
Testing sessions were recorded on days 1 and 10 to determine time spent (seconds) in each chamber.
Day 1 Pre-conditioning/Habituation: Animals are allowed to explore the entire testing chamber freely for 20 min. Animals that display a strong preference for one compartment (>75% time spent in one compartment) are excluded.
Rebalancing Procedure: Animals are rebalanced following day 1 scoring if the difference between groups for time spent in one compartment is greater than 15%.
Days 2-9 Conditioning: All animals are treated with saline on days 2, 4, 6, and 8 and with cocaine or saline on days 3, 5, 7, and 9 depending on their assigned group. Animals are confined to their assigned compartment (saline- or cocaine-paired compartment) for 20 minutes following dosing.
Day 10 Post-conditioning bias test: Animals are dosed once with either saline, MTEP or Compound 1 (1, 3 and 10 mg/kg) according to their assigned. Following dosing, animals are allowed to explore the testing chamber freely for 20 minutes with the compartment dividing door open. Their activity exploring the chamber is recorded for analysis.
Statistical Analysis: Statistical analysis was conducted using GraphPad Prism 9. Scorers blinded to the treatment groups scored the amount of time each animal spent exploring each chamber on days 1 and 10. For bias test data, a one-way analysis of variance (ANOVA) followed by Dunnett's post hoc test was used. Significance was set at p<0.05 and values exceeding two standard deviations of the mean were considered statistical outliers and were excluded from the analysis. Additionally, if an animal spent >85% or <15% of the time in one compartment even without any obvious signs of sedation or locomotor dysfunction, they were excluded from the analysis.

[4] = tested on: cocaine reinstatement in rats; experiment: Yohimbine-induced reinstatement of cocaine self-administration (Stage II); format: in vivo, Sprague-Dawley rats; conditions: for cocaine reinstatement, Mean Diff., Last Day of Cocaine Retraining vs treatment - Yohimbine / cocaine reinstatement, Mean Diff., Last Day of Extinction vs. treatment - Yohimbine / cocaine reinstatement, Mean Diff., Saline - Yohimbine 2 mg/kg vs. treatment - Yohimbine: 3 mg/kg, thirty min before yohimbine 2 mg/kg
Procedure: After completion of Stage I, the rats were re-trained with cocaine for one week to ensure stable baseline. And then the rats underwent a 6-day extinction training procedure in which only saline infusion occurred when active lever was pressed. Meanwhile, the rats were divided into 3 roughly even groups for pharmacological stressor-induced reinstatement—All rats received one injection of alpha-2 adrenergic antagonist yohimbine (2 mg/kg) and then placed into the training box immediately). Thirty min before yohimbine treatment, one group of rats received saline, another group received MTEP 3 mg/kg injection, and the 3rd group received Compound 1 at 3 mg/kg.
Yohimbine-induced reinstatement was re-tested two more times in the same rats 3 days and 6 days after the first test, under continuous extinction procedure (There were 2 more days of extinction training between the 1st and 2nd reinstatement test, and between the 2nd and 3rd reinstatement test). Using the 3×3 within subject design, each given animal goes through all three treatments (saline, MTEP and Compound 1) across the three rounds of test.
A one-way mixed-effects model (REML) of ANOVA followed by Dunnett's post hoc tests were used to analyze efficacy of Compound 1 and MTEP on cocaine self-administration in stages I (The repeated measure ANOVA was not totally applicable due to a few outlier data points, which are removed), and one-way mixed-effects model (REML) of ANOVA followed by Tukey's post hoc tests were used in Stage II. An effect was considered significant if P<0.05. Data were represented as the mean and standard error to the mean (s.e.m).
Statistical outliers which exceeded mean +/− (2× standard deviation) of the group were removed from the analysis. Also, for reinstatement, the extinction time was shortened (from 9 days plus extension as option to 6 days). In the present study, 3 rounds of reinstatement tests were performed, and we wished to maintain the reinstatement power, thus we cut extinction duration. Accordingly, we loosened the extinction criterion from 6 or less infusions to 9 or less infusions during the last extinction session. With this criterion, 17 out of 21 rats were eligible in drug test in Stage II.

[5] = 3 mg/kg IP, FR5, 1 hour session
[6] = MTEP 3 mg/kg IP 30 minutes prior to day 10 bias test
[7] = 1 mg/kg IP 30 minutes prior to day 10 bias test

Row | Structure (SMILES) | cocaine infusion vs saline treatment ([1]; 3 mg/kg IP) | cocaine self-administration, Mean Diff., Saline vs. treatment [1, 5] | yohimbine-induced oxycodone reinstatement vs Vehicle-Yohimbine group [2] | time difference (drug-paired vs saline-paired) vs Cocaine-Saline group ([3]; 3 mg/kg IP, p<0.05) | time spent in the drug-paired compartment vs Cocaine-Saline group ([3]; 3 mg/kg IP, p<0.05) | Percent time in compound-paired compartment, Mean Diff., Cocaine - Saline vs. Cocaine - MTEP [3, 6] [%] | Preference Scores, Mean Diff., Cocaine - Saline vs. Cocaine - MTEP [3, 6] [s] | cocaine reinstatement, Mean Diff., Last Day of Cocaine Retraining vs treatment - Yohimbine [4] | cocaine reinstatement, Mean Diff., Last Day of Extinction vs. treatment - Yohimbine [4] | cocaine reinstatement, Mean Diff., Saline - Yohimbine 2 mg/kg vs. treatment - Yohimbine [4] | cocaine self-administration, Mean Diff., Saline vs. treatment ([1]; 1 mg/kg IP 30 min before testing, FR5) | cocaine self-administration, Mean Diff., Saline vs. treatment ([1]; 10 mg/kg IP 30 min before testing, FR5) | cocaine self-administration vs saline treatment ([1]; all three doses, 1, 3 and 10 mg/kg IP) | Percent time in compound-paired compartment, Mean Diff., Cocaine - Saline vs. Cocaine - Compound 1 (1 mg/kg) [3, 7] [%] | Preference Scores, Mean Diff., Cocaine - Saline vs. Cocaine - Compound 1 (1 mg/kg) [3, 7] [s] | time difference (drug-paired vs saline-paired) vs Cocaine-Saline group ([3]; 1 mg/kg IP, p<0.01) | time spent in the drug-paired compartment vs Cocaine-Saline group ([3]; 1 mg/kg IP, p<0.01) | cocaine reinstatement, Mean Diff., MTEP 3 mg/kg - Yohimbine vs. Compound 1 (3 mg/kg) - Yohimbine ([4]; both 3 mg/kg before yohimbine 2 mg/kg)
1 | Cc1nc(C#Cc2cccnc2)cs1 [MTEP, 3-((2-Methyl-4-thiazolyl)ethynyl)pyridine] | significantly decreased cocaine infusion | 19.93 | attenuated yohimbine-induced oxycodone reinstatement | significantly lower time difference | significantly less time in the drug-paired compartment | 18.73 | 449.6 | 26.71 | 5.882 | 20.41 |  |  |  |  |  |  |  | 
2 | N#Cc1cc(Cl)cc(-c2cc(-c3ccc(F)cn3)ncn2)c1 [Compound 1, 3-chloro-5-[6-(5-fluoropyridin-2-yl)pyrimidin-4-yl]benzonitrile] |  | 24.3 | attenuated yohimbine-induced oxycodone reinstatement |  |  |  |  | 26.57 | 5.749 | 20.28 | 15.73 | 27.07 | significantly attenuate cocaine self-administration | 19.16 | 459.9 | significantly lower time difference | significantly less time in the drug-paired compartment | −0.1333
